The test system of data set [1] is T-tropic HIV. The data set can be described thus: Phenoscreen assay: inhibition of cellular entry of HIV (luciferase-tagged test vector, target host cells). The settings on record: Human immunodeficiency virus 1, read-out: IC50 value for viral entry inhibition. In kind it is cell-based. The method, then: A selected set of compounds are tested for their ability to inhibit the cellular entry of T-tropic HIV. The assay for this inhibition was carried out by Monogram Biosciences, Inc. using their well established Phenoscreen™ assay. Briefly, HIV strains of interest are tagged with a luciferase indicator gene to create an appropriate test vector. The test vector is amplified through transfection and the resulting virus is incubated in the presence of target host cells where intracellular florescence activity then becomes a measure of infection. Amplified virus is exposed to target host cells in the presence of a range of test drug concentrations to determine IC50 measurements of entry inhibition. A modification of this test is further reapplied as a novel drug assay used in partnership with a number of pharmaceutical companies to test the effectiveness of novel entry inhibitors that target specific chemokines. It can used to detect activity against T-tropic, M-tropic, and dual-tropic viruses and Monogram Biosciences has a large bank of over 10,000 different virus strains to ultimately assess the range of applicability of our chemokine modulators. Certain compounds are tested to establish efficacy in a number of viral strains.

The conditions of data set [2]: in vivo; cited from earlier work.

Molecules are shown by their SMILES. A value given as a limit tells only on which side of the number the result lay.

Broadly, the IC50 is the concentration needed to halve the response being measured.

As for `N#Cc1ccc(NNC(=O)c2ccc(CNCc3ccccc3)cc2)cc1` [AB, 4-((benzylamino)methyl)-N′-(4-cyanophenyl)benzohydrazide], the IC50 in data set [1] was not above 10 µM.

Regarding `C[C@H](NC(=O)NCc1ccc(C(=O)NNc2ccccc2)cc1)c1cccc2ccccc12` [BE, (S)-4-((3-(1-(naphthalen-1-yl)ethyl)ureido)methyl)-N′-phenylbenzohydrazide], the IC50 in data set [1] was not above 10 µM.

For the compound `c1cc(CN2CCCNCCNCCCNCC2)ccc1CN1CCCNCCNCCCNCC1` [AMD3100], the “side effect in clinical study” value in data set [2] is on record as “cardiac-related side effect”.

Take `O=C(NNc1ccccc1)c1ccc(CNCc2ccccn2)cc1` [AL, N′-phenyl-4-((pyridin-2-ylmethylamino)methyl)benzohydrazide]: the IC50 in data set [1] is not above 10 µM. Same read-out and setting: then `O=C(NNc1ccc(F)cc1F)c1ccc(CNCc2ccccc2)cc1` [AF, 4-((benzylamino)methyl)-N1′-(2,4-difluorophenyl)benzohydrazide], with not above 10 µM. On the same count and under the same terms, to `O=C(NCc1ccc(C(=O)N(Cc2ccccc2)N2CCOCC2)cc1)c1cccs1` [A, N-(4-(benzyl(morpholino)carbamoyl)benzyl)thiophene-2-carboxamide] belongs not above 10 µM; to `O=C(NCc1ccccc1)c1ccc(C(=O)NNc2ccccc2)cc1`, not above 10 µM; to `O=C(NNc1ccccc1)c1ccc(CNCc2ccccc2)cc1` [Z, 4-((benzylamino)methyl)-N′-phenylbenzohydrazide], not above 10 µM. For the compound `O=C(NNc1ccc(C(F)(F)F)cc1)c1ccc(CNCc2ccccc2)cc1` [AA, 4-((benzylamino)methyl)-N′-(4-(trifluoromethyl)phenyl)benzohydrazide], the IC50 in data set [1] was not above 10 µM.

Take `O=C(NCc1ccccn1)c1ccc(C(=O)NNc2ccccc2)cc1` [AO, 4-(2-phenylhydrazinecarbonyl)-N-(pyridin-2-ylmethyl)benzamide]: the IC50 in data set [1] is not above 10 µM.
